Assay results: the kinase profiling compilation of Christmann-Franck et al. (2016)

Assays:
Experiment in all cases: radiometric filter-binding kinase assay
FGFR1 (human) = FGFR1 (human) (UniProt P11362)
[1] = biological target: STK11 CAB39 STRADA (human) (UniProt Q9Y376+Q7RTN6+Q15831)
INSR (human) = INSR (human) (UniProt P06213)
NEK6 (human) = NEK6 (human) (UniProt Q9HC98)
TTK (human) = TTK (human) (UniProt P33981)
MARK2 (human) = MARK2 (human) (UniProt Q7KZI7)
MAP2K6 (human) = MAP2K6 (human) (UniProt P52564)
MAP2K6 (human), sequence (P52564 whole entry, looked up): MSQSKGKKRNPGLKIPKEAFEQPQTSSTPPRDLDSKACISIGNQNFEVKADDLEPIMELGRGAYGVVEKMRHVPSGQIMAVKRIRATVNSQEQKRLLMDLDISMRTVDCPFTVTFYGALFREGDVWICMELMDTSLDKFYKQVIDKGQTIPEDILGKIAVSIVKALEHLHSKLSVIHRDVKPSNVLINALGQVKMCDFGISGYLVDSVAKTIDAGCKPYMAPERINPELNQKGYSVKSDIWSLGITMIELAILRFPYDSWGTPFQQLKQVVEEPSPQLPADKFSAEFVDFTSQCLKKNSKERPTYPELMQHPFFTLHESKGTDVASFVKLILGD

MAPK11 (human) = MAPK11 (human) (UniProt Q15759)
PHKG1 (human) = PHKG1 (human) (UniProt Q16816)
PHKG1 (human), sequence (Q16816 whole entry, looked up): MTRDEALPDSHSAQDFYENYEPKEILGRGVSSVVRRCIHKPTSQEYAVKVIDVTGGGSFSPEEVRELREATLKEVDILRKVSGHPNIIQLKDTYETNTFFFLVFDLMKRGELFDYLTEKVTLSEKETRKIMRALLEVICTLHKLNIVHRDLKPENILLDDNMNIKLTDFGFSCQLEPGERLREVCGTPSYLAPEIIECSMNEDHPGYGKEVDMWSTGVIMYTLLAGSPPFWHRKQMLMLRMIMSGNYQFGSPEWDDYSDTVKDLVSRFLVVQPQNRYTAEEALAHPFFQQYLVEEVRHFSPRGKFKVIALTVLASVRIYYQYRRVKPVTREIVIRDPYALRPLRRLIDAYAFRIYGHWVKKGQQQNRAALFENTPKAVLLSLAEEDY

[2] = system: AKT1 (human), P31749 [S473D]
MAPK10 (human) = MAPK10 (human) (UniProt P53779)
TBK1 (human) = TBK1 (human) (UniProt Q9UHD2)
CSNK2A1 (human) = CSNK2A1 (human) (UniProt P68400)
CSNK2A1 (human), sequence (P68400 whole entry, looked up): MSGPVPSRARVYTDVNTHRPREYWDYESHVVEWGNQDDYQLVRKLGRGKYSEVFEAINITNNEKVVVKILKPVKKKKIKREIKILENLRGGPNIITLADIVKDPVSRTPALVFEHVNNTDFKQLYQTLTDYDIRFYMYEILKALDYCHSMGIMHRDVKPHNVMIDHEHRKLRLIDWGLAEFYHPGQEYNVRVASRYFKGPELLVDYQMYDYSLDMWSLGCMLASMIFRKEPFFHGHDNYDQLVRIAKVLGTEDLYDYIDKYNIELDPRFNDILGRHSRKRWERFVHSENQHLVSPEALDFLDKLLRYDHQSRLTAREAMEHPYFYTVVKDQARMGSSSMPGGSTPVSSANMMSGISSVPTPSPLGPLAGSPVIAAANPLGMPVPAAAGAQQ

[3] = system: AKT2 (human), P31751 [S474D]
PKN2 (human) = PKN2 (human) (UniProt Q16513)
SYK (human) = SYK (human) (UniProt P43405)
INSRR (human) = INSRR (human) (UniProt P14616)
[4] = system: PAK2 (human), Q13177 [T402E]
DYRK3 (human) = DYRK3 (human) (UniProt O43781)
MAP3K9 (human) = MAP3K9 (human) (UniProt P80192)
PIM2 (human) = PIM2 (human) (UniProt Q9P1W9); settings: compound 10.0 µM
MKNK1 (human) = MKNK1 (human) (UniProt Q9BUB5)
NEK2 (human) = NEK2 (human) (UniProt P51955)
GSK3B (human) = GSK3B (human) (UniProt P49841)
MAPK13 (human) = MAPK13 (human) (UniProt O15264)
[5] = system: RPS6KB1 (human), P23443 [T412E]
LCK (mouse) = settings: accession and sequence are those of the human protein
MYLK (human) = MYLK (human) (UniProt Q15746)
MYLK (human), sequence (Q15746 whole entry, looked up): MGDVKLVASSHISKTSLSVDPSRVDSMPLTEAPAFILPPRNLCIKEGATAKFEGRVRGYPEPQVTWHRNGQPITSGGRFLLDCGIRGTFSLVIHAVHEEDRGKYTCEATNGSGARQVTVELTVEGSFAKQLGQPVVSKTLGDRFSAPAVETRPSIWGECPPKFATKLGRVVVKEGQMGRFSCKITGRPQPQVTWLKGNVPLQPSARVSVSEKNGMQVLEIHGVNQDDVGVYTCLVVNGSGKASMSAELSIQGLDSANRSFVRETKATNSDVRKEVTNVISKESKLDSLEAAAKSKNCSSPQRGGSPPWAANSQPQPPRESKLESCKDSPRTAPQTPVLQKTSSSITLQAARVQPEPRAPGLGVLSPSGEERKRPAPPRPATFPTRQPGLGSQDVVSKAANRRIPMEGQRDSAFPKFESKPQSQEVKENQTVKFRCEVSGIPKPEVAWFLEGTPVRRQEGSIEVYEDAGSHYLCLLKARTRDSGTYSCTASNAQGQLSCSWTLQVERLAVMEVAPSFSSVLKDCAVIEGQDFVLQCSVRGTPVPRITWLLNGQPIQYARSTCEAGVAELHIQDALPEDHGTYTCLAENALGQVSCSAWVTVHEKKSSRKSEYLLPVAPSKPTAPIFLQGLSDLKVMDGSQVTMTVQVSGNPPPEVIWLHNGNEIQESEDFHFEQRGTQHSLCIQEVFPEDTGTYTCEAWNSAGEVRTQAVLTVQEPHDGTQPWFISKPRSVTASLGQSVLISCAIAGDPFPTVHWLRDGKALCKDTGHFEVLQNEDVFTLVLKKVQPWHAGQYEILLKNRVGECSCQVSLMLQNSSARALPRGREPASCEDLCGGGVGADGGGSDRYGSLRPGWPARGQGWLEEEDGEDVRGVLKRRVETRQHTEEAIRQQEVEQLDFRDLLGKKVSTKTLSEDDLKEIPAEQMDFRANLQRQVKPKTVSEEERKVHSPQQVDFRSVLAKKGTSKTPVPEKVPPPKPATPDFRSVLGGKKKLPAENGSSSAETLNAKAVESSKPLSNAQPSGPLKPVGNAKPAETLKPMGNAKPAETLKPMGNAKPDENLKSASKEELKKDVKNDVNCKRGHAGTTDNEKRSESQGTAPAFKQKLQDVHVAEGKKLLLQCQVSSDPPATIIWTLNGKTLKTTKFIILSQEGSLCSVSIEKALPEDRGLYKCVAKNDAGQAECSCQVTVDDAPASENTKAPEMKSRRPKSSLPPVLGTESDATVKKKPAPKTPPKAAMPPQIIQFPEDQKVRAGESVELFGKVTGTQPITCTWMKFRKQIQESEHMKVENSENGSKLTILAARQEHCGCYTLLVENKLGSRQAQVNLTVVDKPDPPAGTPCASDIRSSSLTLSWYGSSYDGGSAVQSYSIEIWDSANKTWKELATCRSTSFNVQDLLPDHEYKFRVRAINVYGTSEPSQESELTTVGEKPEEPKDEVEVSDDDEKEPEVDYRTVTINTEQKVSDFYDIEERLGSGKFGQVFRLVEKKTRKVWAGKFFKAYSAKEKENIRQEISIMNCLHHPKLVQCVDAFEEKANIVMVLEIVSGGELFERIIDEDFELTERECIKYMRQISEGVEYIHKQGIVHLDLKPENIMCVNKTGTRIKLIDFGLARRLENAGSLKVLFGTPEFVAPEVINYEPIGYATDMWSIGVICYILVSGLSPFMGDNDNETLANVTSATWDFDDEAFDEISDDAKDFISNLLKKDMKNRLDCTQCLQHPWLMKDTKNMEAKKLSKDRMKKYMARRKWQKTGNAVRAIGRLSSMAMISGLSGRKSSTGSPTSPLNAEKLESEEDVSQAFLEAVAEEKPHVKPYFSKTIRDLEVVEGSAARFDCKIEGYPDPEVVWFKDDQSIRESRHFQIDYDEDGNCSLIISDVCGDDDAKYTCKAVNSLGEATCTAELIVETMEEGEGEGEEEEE

MARK1 (human) = MARK1 (human) (UniProt Q9P0L2)
MARK1 (human), sequence (Q9P0L2 whole entry, looked up): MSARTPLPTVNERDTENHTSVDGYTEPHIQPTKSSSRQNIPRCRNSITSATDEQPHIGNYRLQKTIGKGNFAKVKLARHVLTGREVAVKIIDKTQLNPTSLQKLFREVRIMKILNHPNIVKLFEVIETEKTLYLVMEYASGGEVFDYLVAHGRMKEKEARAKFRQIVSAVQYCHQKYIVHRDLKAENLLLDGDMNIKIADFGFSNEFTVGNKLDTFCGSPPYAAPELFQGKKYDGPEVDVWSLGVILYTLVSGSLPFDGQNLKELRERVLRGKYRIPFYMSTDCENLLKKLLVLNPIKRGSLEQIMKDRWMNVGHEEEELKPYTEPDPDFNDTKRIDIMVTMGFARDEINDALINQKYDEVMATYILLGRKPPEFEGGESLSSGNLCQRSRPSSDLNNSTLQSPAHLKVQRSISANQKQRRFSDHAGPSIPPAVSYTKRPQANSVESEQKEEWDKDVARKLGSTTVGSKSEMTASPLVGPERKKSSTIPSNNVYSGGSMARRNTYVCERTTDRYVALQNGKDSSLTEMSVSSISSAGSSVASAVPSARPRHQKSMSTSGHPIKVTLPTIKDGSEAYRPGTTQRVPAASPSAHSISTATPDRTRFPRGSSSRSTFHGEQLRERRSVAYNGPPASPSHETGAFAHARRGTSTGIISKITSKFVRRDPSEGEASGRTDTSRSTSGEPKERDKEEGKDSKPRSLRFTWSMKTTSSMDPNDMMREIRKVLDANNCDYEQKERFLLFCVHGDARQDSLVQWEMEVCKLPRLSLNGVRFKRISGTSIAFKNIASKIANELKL

ROCK2 (rat) = settings: accession and sequence are those of the human protein
IRAK4 (human) = IRAK4 (human) (UniProt Q9NWZ3)
EPHA2 (human) = EPHA2 (human) (UniProt P29317)
PIM3 (human) = PIM3 (human) (UniProt Q86V86)
SRPK1 (human) = SRPK1 (human) (UniProt Q96SB4)
MAP2K1 (human) = MAP2K1 (human) (UniProt Q02750)
EPHB1 (human) = EPHB1 (human) (UniProt P54762)

STK11 CAB39 STRADA (human), sequence (Q15831 whole entry, looked up): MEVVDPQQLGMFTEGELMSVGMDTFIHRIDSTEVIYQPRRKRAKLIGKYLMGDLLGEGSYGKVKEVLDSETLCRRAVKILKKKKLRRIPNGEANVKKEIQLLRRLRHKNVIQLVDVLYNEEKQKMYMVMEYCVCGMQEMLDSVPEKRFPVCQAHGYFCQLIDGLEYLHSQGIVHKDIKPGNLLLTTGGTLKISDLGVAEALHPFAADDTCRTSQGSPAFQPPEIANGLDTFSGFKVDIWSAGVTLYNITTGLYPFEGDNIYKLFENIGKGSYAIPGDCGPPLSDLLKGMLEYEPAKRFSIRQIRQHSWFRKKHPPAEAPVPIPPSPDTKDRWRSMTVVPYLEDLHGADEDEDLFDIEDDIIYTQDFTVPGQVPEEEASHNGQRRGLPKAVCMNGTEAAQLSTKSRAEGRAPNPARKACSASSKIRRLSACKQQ
STK11 CAB39 STRADA (human), sequence (Q7RTN6 whole entry, looked up): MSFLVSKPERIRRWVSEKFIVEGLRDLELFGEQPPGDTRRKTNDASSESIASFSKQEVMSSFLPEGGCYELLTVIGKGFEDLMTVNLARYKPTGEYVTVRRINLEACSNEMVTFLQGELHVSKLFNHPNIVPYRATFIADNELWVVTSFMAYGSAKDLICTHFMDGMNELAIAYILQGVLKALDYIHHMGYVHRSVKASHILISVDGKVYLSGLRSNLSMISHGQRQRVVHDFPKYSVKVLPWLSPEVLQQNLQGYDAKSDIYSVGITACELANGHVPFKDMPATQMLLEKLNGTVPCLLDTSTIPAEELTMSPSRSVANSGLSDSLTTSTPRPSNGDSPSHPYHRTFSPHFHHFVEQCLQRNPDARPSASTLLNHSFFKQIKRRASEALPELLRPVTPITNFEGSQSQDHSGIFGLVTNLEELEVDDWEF
STK11 CAB39 STRADA (human), sequence (Q9Y376 whole entry, looked up): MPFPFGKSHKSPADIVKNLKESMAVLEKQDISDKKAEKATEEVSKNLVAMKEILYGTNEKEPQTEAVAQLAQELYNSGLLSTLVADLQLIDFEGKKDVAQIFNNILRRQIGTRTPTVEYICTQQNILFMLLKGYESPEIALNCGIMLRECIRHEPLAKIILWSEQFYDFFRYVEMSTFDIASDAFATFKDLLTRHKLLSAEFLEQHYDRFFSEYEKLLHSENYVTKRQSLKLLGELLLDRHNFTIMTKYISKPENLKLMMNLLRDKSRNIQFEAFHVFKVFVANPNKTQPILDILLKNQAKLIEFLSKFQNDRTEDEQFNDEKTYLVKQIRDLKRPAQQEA

## CCNc1nc(Nc2cc(F)c(C(=O)N3CCOCC3)cc2OC)ncc1C(F)(F)F
FGFR1 (human); compound 1.0 µM
  residual activity: 118%
FGFR1 (human); compound 10.0 µM
  residual activity: 95%
[1]; compound 1.0 µM
  residual activity: 89%
[1]; compound 10.0 µM
  residual activity: 86%
INSR (human); compound 1.0 µM
  residual activity: 19%
INSR (human); compound 10.0 µM
  residual activity: 2%
NEK6 (human); compound 1.0 µM
  residual activity: 103%
NEK6 (human); compound 10.0 µM
  residual activity: 84%
TTK (human); compound 1.0 µM
  residual activity: 52%
TTK (human); compound 10.0 µM
  residual activity: 32%
MARK2 (human); compound 1.0 µM
  residual activity: 98%
MARK2 (human); compound 10.0 µM
  residual activity: 73%
MAP2K6 (human); compound 1.0 µM
  residual activity: 72%
MAP2K6 (human); compound 10.0 µM
  residual activity: 31%
MAPK11 (human); compound 1.0 µM
  residual activity: 98%
MAPK11 (human); compound 10.0 µM
  residual activity: 91%
PHKG1 (human); compound 1.0 µM
  residual activity: 23%
PHKG1 (human); compound 10.0 µM
  residual activity: 3%
[2]; compound 1.0 µM
  residual activity: 102%
[2]; compound 10.0 µM
  residual activity: 87%
MAPK10 (human); compound 1.0 µM
  residual activity: 84%
MAPK10 (human); compound 10.0 µM
  residual activity: 50%
TBK1 (human); compound 1.0 µM
  residual activity: 62%
TBK1 (human); compound 10.0 µM
  residual activity: 17%
CSNK2A1 (human); compound 1.0 µM
  residual activity: 95%
CSNK2A1 (human); compound 10.0 µM
  residual activity: 82%
[3]; compound 1.0 µM
  residual activity: 92%
[3]; compound 10.0 µM
  residual activity: 95%
PKN2 (human); compound 1.0 µM
  residual activity: 73%
PKN2 (human); compound 10.0 µM
  residual activity: 65%
SYK (human); compound 1.0 µM
  residual activity: 70%
SYK (human); compound 10.0 µM
  residual activity: 33%
INSRR (human); compound 1.0 µM
  residual activity: 90%
INSRR (human); compound 10.0 µM
  residual activity: 67%
[4]; compound 1.0 µM
  residual activity: 86%
[4]; compound 10.0 µM
  residual activity: 86%
DYRK3 (human); compound 1.0 µM
  residual activity: 96%
DYRK3 (human); compound 10.0 µM
  residual activity: 58%
MAP3K9 (human); compound 1.0 µM
  residual activity: 25%
MAP3K9 (human); compound 10.0 µM
  residual activity: 3%
PIM2 (human)
  residual activity: 93%
MKNK1 (human); compound 1.0 µM
  residual activity: 92%
MKNK1 (human); compound 10.0 µM
  residual activity: 45%
NEK2 (human); compound 1.0 µM
  residual activity: 99%
NEK2 (human); compound 10.0 µM
  residual activity: 92%
GSK3B (human); compound 1.0 µM
  residual activity: 90%
GSK3B (human); compound 10.0 µM
  residual activity: 83%
MAPK13 (human); compound 1.0 µM
  residual activity: 102%
MAPK13 (human); compound 10.0 µM
  residual activity: 98%
[5]; compound 1.0 µM
  residual activity: 89%
[5]; compound 10.0 µM
  residual activity: 60%
LCK (mouse); compound 1.0 µM
  residual activity: 108%
LCK (mouse); compound 10.0 µM
  residual activity: 101%
MYLK (human); compound 1.0 µM
  residual activity: 31%
MYLK (human); compound 10.0 µM
  residual activity: 6%
MARK1 (human); compound 1.0 µM
  residual activity: 97%
MARK1 (human); compound 10.0 µM
  residual activity: 58%
ROCK2 (rat); compound 1.0 µM
  residual activity: 85%
ROCK2 (rat); compound 10.0 µM
  residual activity: 72%
IRAK4 (human); compound 1.0 µM
  residual activity: 103%
IRAK4 (human); compound 10.0 µM
  residual activity: 83%
EPHA2 (human); compound 1.0 µM
  residual activity: 107%
EPHA2 (human); compound 10.0 µM
  residual activity: 86%
PIM3 (human); compound 1.0 µM
  residual activity: 105%
PIM3 (human); compound 10.0 µM
  residual activity: 76%
SRPK1 (human); compound 1.0 µM
  residual activity: 79%
SRPK1 (human); compound 10.0 µM
  residual activity: 68%
MAP2K1 (human); compound 1.0 µM
  residual activity: 95%
MAP2K1 (human); compound 10.0 µM
  residual activity: 75%
EPHB1 (human); compound 1.0 µM
  residual activity: 100%
EPHB1 (human); compound 10.0 µM
  residual activity: 90%
